Like-named read-outs stand apart in the source and are kept apart here.
Key:
CLL = assay: Compound 1 besylate monotherapy in patients with CLL; assay type: in vivo
Solubility = assay type: physicochemical
[1] = Environmental stability (heat, acid, base); assay type: physicochemical
relapsed/refractory CLL = details: cited from earlier work
[2] = monotherapy, as of Sep. 11, 2012
[3] = 25 mg for 21 days of every 28-day cycle

Compound: C=CC(=O)Nc1cccc(Nc2nc(Nc3ccc(OCCOC)cc3)ncc2F)c1 [Compound 1, N-(3-(5-fluoro-2-(4-(2-methoxyethoxyl)phenylamino)pyrimidin-4-ylamino)phenyl)acrylamide]
- maximum tolerated dose (MTD) (CLL; single agent): has not yet been reached

Compound: C=CC(=O)Nc1cccc(Nc2nc(Nc3ccc(OCCOC)cc3)ncc2F)c1.O=S(=O)(O)c1ccccc1 [Compound 1 besylate, N-(3-(5-fluoro-2-(4-(2-methoxyethoxyl)phenylamino)pyrimidin-4-ylamino)phenyl)acrylamide benzenesulfonic acid salt]
- patients who experienced early increases in absolute lymphocyte counts (ALC) (CLL; [2]): 28 of 33
- patients who experienced reductions in lymph node size (CLL; [2]): 15 of 23
- patients with CLL who experienced stable disease and continue on treatment (CLL; [2]): 35 out of 43
- solubility (Solubility; ethanol, organic solvent or mixture, read-out: solubility in ethanol): ~10000 µg/mL
- solubility (Solubility; water, read-out: solubility in water): ~160 µg/mL
- environmental instabilities (i.e. heat, acid, base) [1]: no environmental instabilities

Compound: Nc1cccc2c1CN(C1CCC(=O)NC1=O)C2=O (centres unmarked) [lenalidomide, 3-(4-amino-1-oxo-1,3-dihydro-2H-isoindol-2-yl)piperidine-2,6-dione]
- Complete Response [CR] (relapsed/refractory CLL; [3]): 18%
- Partial Response [PR] (relapsed/refractory CLL; [3]): 36%
- median progression-free survival (PFS) time (relapsed/refractory CLL; [3]): 19.4 months
- median time to best response (relapsed/refractory CLL; [3]): 5.9 months
- overall response (relapsed/refractory CLL; [3]): 53%
- Clinical responses (CR or PR) (relapsed/refractory CLL; subjects refractory to fludarabine): 30%
- Clinical responses (CR or PR) (relapsed/refractory CLL; subjects with del (11)(q23) and/or del (17)(p13.1) adverse cytogenetics): 47%
